# According to ChEMBL document CHEMBL6083254, “Optimization of B-Ring-Functionalized Antimalarial Tambjamines and Prodiginines” (J Med Chem, 2024):
# The source made the active and inactive calls. The calls are words filed in the database; no cut-off is given here.
# Experiments:
# HepG2 = assay: Cytotoxicity against human HepG2 cells assessed as cell viability incubated for 72 hrs by MTT assay; format: toxicity, cell-based; settings: hepg2
# Plasmodium yoelii [1] = assay: Antiplasmodial activity against asexual erythrocytic stage of Plasmodium yoelii infected in po dosed female CFI mouse model assessed as reduction in parasitemia administered once daily for 4 days and measured on day 5 by Giemsa staining based microscopic analysis; format: functional; settings: 120 h, time 5 day
# Plasmodium yoelii [2] = assay: Antiplasmodial activity against asexual erythrocytic stage of Plasmodium yoelii infected in female CFI mouse model assessed as reduction in parasitemia at 1 mg/kg, po administered once daily for 4 days and measured on day 5 by Giemsa staining based microscopic analysis relative to control; format: functional; design: scale not given: the % may be the effect or the level left; settings: time 5 day
# Plasmodium yoelii [3] = assay: Antiplasmodial activity against asexual erythrocytic stage of Plasmodium yoelii infected in female CFI mouse model assessed as reduction in parasitemia at 10 mg/kg, po administered once daily for 4 days and measured on day 5 by Giemsa staining based microscopic analysis relative to control; format: functional; design: scale not given: the % may be the effect or the level left; settings: time 5 day
# Plasmodium yoelii [4] = assay: Antiplasmodial activity against asexual erythrocytic stage of Plasmodium yoelii infected in female CFI mouse model at 25 mg/kg, po administered once daily for 4 days and measured on day 5 by Giemsa staining based microscopic analysis; format: functional, organism-based; settings: time 5.0 day
# Plasmodium berghei [5] = assay: Antimalarial activity against liver-stage Plasmodium berghei sporozoites ANKA expressing GFP infected in po dosed female Albino C57BL/6 mouse assessed as reduction in parasite load measured after 24 to 48 hrs by IVIS imaging analysis; format: functional, organism-based; settings: dose 20-40 mg/kg, time 24-48 hrs
# Plasmodium berghei [6] = assay: Antimalarial activity against blood-stage Plasmodium berghei sporozoites ANKA expressing GFP infected in po dosed female Albino C57BL/6 mouse assessed as reduction in parasite load measured after 72 hrs by flow cytometry analysis; format: functional, organism-based; settings: dose 20-40 mg/kg
# Plasmodium berghei [7] = assay: Antimalarial activity against liver-stage Plasmodium berghei sporozoites ANKA expressing GFP infected female Albino C57BL/6 mouse assessed as reduction in parasite growth at 40 mg/kg, po measured at 48 hrs by IVIS imaging analysis; format: functional; design: scale not given: the % may be the effect or the level left
# Plasmodium berghei [8] = assay: Antimalarial activity against liver-stage Plasmodium berghei sporozoites ANKA expressing GFP infected female Albino C57BL/6 mouse assessed as reduction in parasite growth at 40 mg/kg, po measured at 72 hrs by IVIS imaging analysis; format: functional; design: scale not given: the % may be the effect or the level left
# [9] = Metabolic stability in human liver microsomes assessed as half life measured upto 60 mins LC-MS analysis
# [10] = Metabolic stability in mouse liver microsomes assessed as half life measured upto 60 mins LC-MS analysis
# [11] = Metabolic stability in human liver microsomes assessed as intrinsic clearance measured upto 60 mins LC-MS analysis
# [12] = Metabolic stability in mouse liver microsomes assessed as intrinsic clearance measured upto 60 mins LC-MS analysis
# [13] = Aqueous solubility of compound in PBS buffer at pH 7.4 incubated for 90 mins by UV-vis spectroscopic analysis; settings: pH 7.4, 1.5 h
# [14] = Cmax in ICR-CD1 mouse liver at 40 mg/kg, po; format: ADME, organism-based
# [15] = Cmax in ICR-CD1 mouse plasma at 40 mg/kg, po; format: ADME, organism-based
# [16] = Tmax in ICR-CD1 mouse liver at 40 mg/kg, po; format: ADME, organism-based
# [17] = Tmax in ICR-CD1 mouse plasma at 40 mg/kg, po; format: ADME, organism-based
# [18] = Half life in ICR-CD1 mouse liver at 40 mg/kg, po; format: ADME, organism-based
# [19] = Half life in ICR-CD1 mouse plasma at 40 mg/kg, po; format: ADME, organism-based
# [20] = AUClast in ICR-CD1 mouse liver at 40 mg/kg, po; format: ADME, organism-based
# [21] = AUClast in ICR-CD1 mouse plasma at 40 mg/kg, po; format: ADME, organism-based
# [22] = %AUCextra in ICR-CD1 mouse liver at 40 mg/kg, po; format: ADME, organism-based; settings: in vivo
# [23] = %AUCextra in ICR-CD1 mouse plasma at 40 mg/kg, po; format: ADME, organism-based; settings: in vivo
# [24] = AUC (0 to infinity) in ICR-CD1 mouse liver at 40 mg/kg, po; format: ADME, organism-based
# [25] = AUC (0 to infinity) in ICR-CD1 mouse plasma at 40 mg/kg, po; format: ADME, organism-based; settings: in vivo
# [26] = Apparent oral clearance in ICR-CD1 mouse liver at 40 mg/kg, po; format: ADME, organism-based
# [27] = Apparent oral clearance in ICR-CD1 mouse plasma at 40 mg/kg, po; format: ADME, organism-based; settings: in vivo
# [28] = MRTlast in ICR-CD1 mouse liver at 40 mg/kg, po; format: ADME, organism-based
# [29] = MRTlast in ICR-CD1 mouse plasma at 40 mg/kg, po; format: ADME, organism-based
# [30] = Mutagenicity in Salmonella typhimurium TA98 at 10 uM in presence of S9 fraction incubated for 5 days by AMES assay; format: toxicity, subcellular; settings: salmonella enterica subsp. enterica serovar typhimurium, s9, 120 h, time 5 day
# [31] = Mutagenicity in Salmonella typhimurium TA98 at 10 uM in absence of S9 fraction incubated for 5 days by AMES assay; format: toxicity; settings: salmonella enterica subsp. enterica serovar typhimurium, s9, 120 h, time 5 day
# [32] = Mutagenicity in Salmonella typhimurium TA100 at 10 uM in presence of S9 fraction incubated for 5 days by AMES assay; format: toxicity, subcellular; settings: salmonella enterica subsp. enterica serovar typhimurium, s9, 120 h, time 5 day
# [33] = Mutagenicity in Salmonella typhimurium TA100 at 10 uM in absence of S9 fraction incubated for 5 days by AMES assay; format: toxicity; settings: salmonella enterica subsp. enterica serovar typhimurium, s9, 120 h, time 5 day
# [34] = molecular target: T1, Voltage-gated inwardly rectifying potassium channel KCNH2 (Homo sapiens, UniProt Q12809); assay: Inhibition of hERG expressed in CHO-K1 cells at 0.313 uM relative to control; format: toxicity, cell-based; settings: cho-k1, 0.313 µM
# T1 sequence (Q12809 whole entry): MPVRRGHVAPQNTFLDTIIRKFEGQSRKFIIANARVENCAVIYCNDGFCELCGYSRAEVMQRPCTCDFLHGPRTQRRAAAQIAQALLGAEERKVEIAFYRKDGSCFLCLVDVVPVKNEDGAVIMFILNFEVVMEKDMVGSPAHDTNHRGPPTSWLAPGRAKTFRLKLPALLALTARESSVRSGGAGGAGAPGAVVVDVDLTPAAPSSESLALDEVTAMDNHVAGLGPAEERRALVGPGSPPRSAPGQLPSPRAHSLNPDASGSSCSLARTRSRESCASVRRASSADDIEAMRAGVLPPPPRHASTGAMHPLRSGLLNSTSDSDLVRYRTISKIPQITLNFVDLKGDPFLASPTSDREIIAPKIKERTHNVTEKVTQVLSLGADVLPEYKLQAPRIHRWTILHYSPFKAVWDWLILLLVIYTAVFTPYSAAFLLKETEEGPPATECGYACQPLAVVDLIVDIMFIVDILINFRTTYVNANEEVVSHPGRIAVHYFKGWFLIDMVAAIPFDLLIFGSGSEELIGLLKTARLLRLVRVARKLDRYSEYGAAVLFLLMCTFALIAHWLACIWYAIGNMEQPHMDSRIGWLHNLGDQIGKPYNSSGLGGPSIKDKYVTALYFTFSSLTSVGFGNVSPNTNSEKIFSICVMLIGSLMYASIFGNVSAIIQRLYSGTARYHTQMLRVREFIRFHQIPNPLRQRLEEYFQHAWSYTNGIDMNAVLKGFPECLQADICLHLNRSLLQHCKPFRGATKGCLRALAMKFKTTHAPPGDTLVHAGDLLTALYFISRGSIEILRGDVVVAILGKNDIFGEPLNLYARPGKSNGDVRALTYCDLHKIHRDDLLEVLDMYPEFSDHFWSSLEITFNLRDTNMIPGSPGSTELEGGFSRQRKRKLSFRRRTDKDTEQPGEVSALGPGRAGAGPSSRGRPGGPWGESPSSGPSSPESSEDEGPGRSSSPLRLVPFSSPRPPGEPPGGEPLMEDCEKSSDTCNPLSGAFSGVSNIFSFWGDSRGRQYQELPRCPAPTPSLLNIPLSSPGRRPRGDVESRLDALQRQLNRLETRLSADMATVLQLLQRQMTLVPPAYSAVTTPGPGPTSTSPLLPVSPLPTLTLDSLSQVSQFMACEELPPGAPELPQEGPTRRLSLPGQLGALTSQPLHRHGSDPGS
# [35] = molecular target: T1, Voltage-gated inwardly rectifying potassium channel KCNH2; assay: Inhibition of hERG expressed in CHO-K1 cells at 0.625 uM relative to control; format: toxicity, cell-based; settings: cho-k1, 0.625 µM
# [36] = molecular target: T1, Voltage-gated inwardly rectifying potassium channel KCNH2; assay: Inhibition of hERG expressed in CHO-K1 cells at 1.25 uM relative to control; format: toxicity, cell-based; settings: cho-k1, 1.25 µM
# [37] = molecular target: T1, Voltage-gated inwardly rectifying potassium channel KCNH2; assay: Inhibition of hERG expressed in CHO-K1 cells at 2.5 uM relative to control; format: toxicity, cell-based; settings: cho-k1, 2.5 µM
# [38] = molecular target: T1, Voltage-gated inwardly rectifying potassium channel KCNH2; assay: Inhibition of hERG expressed in CHO-K1 cells at 5 uM relative to control; format: toxicity, cell-based; settings: cho-k1, 5 µM
# [39] = molecular target: T1, Voltage-gated inwardly rectifying potassium channel KCNH2; assay: Inhibition of hERG expressed in CHO-K1 cells at 10 uM relative to control; format: toxicity, cell-based; settings: cho-k1, 10 µM
# in vitro = settings: human
# Description: Selectivity index, ratio of IC50 for cytotoxicity against human HepG2 cells assessed as cell viability to IC50 for antiplasmodial activity against asexual erythrocytic stage of Plasmodium falciparum D6 assessed as inhibition of parasitic growth incubated
# Plasmodium falciparum [40] = assay: microbe, parasite or virus in culture; settings: D6, 72 h
# Plasmodium falciparum [41] = assay: microbe, parasite or virus in culture; settings: Dd2, 72 h
# Plasmodium falciparum [42] = assay: microbe, parasite or virus in culture; settings: Tm90-C2B, 72 h
compound,measurement,setting,value
CCCCCc1cc(/C=C2\N=C(c3ccc[nH]3)C=C2Oc2ccccc2)[nH]c1C.Cl,IC50,HepG2,6260 nM
same,ED50,"Plasmodium yoelii [1]; Plasmodium yoelii, po, read-out: ED50",0.99 mg/kg/day
same,ED50,Plasmodium yoelii [1],1.11 mg/kg/day
same,Activity,Plasmodium yoelii [2],54.6%
same,Activity,Plasmodium yoelii [3],100%
same,Activity,Plasmodium yoelii [4],Active
same,Activity,Plasmodium berghei [5],Dose-dependent-effect
same,Activity,Plasmodium berghei [6],Dose-dependent-effect
same,Activity,Plasmodium berghei [7],43%
same,Activity,Plasmodium berghei [8],74%
same,half-life at 1 h,[9],> 1 h
same,half-life at 1 h,[10],0.915 h
same,microsomal CLint at 1 h,[11],4.02 µL/min/mg
same,microsomal CLint at 1 h,[12],25.2 µL/min/mg
same,solubility,[13],< 3.125 µM
same,Cmax,[14],1130 ng/mL
same,Cmax,[15],199 ng/mL
same,Tmax,[16],24 h
same,Tmax,[17],30 h
same,half-life,[18],5.03 h
same,half-life,[19],6.41 h
same,AUC(0-t),[20],31900 ng·h/mL
same,AUC(0-t),[21],5950 ng·h/mL
same,%AUCextra,[22],0.267%
same,%AUCextra,[23],0.426%
same,AUC(0-inf),[24],32000 ng·h/mL
same,AUC,[25],5974 ng·h/mL
same,CL/F,[26],0.615 mL/min/kg
same,CL/F,[27],3.32 mL/min/kg
same,MRT last,[28],29.1 h
same,MRT last,[29],28.3 h
same,Activity,[30],Non-toxic
same,Activity,[31],Non-toxic
same,Activity,[32],Non-toxic
same,Activity,[33],Non-toxic
same,inhibition (INH),[34],0.24%
same,inhibition (INH),[35],7.31%
same,inhibition (INH),[36],9.85%
same,inhibition (INH),[37],10.3%
same,inhibition (INH),[38],10.3%
same,inhibition (INH),[39],17.5%
same,selectivity ratio,in vitro,884
same,IC50,Plasmodium falciparum [40],7.08 nM
same,IC50,Plasmodium falciparum [41],3.87 nM
same,IC50,Plasmodium falciparum [42],8.74 nM
